Experimental findings from PMC7150468, “A2AR Antagonism with DZD2269 Augments Antitumor Efficacy of Irradiation in Murine Model” (Journal of Cancer, 2020) are described below.

This assay concerns the target T1, adenosine 2A receptor (A2AR) (Mus musculus, UniProt Q60613).
T1 construct: gene Adora2a
The assay is described as follows: inhibition of NECA ([…])-stimulated CREB phosphorylation in mouse CD8+ T cells, flow cytometry. Type of assay: cell-based. For orientation: In flow cytometry, cells or beads pass a laser one at a time.

T1 sequence (Q60613 whole entry): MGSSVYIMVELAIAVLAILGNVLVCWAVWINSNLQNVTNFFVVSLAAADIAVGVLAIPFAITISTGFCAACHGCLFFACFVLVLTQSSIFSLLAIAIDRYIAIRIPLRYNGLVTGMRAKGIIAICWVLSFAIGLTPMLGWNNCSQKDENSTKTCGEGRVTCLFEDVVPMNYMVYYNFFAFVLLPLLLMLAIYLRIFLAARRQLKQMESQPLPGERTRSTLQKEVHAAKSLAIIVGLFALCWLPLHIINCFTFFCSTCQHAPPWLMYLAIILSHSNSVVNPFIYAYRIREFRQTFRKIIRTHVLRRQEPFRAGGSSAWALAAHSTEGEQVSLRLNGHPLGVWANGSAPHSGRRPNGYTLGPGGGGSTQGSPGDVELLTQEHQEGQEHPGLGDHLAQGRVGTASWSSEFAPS

For orientation: IC50 means the midpoint of a concentration-inhibition curve. A low value points to greater potency. The substance DZD2269 showed an IC50 of roughly 3 nM.
